Measured values from US12606552B2, “Bifunctional compound, preparation method therefor, and use thereof” (SUZHOU KINTOR PHARMACEUTICALS, INC., priority 2020, dated 2026).

What follows are molecules tested against T1, AR (Homo sapiens, UniProt P10275, T878A) (assay: Effects of compounds on AR expression in LNCaP cells (ELISA, DC50)). Details: 24 hours of drug treatment, AR by ELISA.
T1 sequence (P10275 1-920 T878A): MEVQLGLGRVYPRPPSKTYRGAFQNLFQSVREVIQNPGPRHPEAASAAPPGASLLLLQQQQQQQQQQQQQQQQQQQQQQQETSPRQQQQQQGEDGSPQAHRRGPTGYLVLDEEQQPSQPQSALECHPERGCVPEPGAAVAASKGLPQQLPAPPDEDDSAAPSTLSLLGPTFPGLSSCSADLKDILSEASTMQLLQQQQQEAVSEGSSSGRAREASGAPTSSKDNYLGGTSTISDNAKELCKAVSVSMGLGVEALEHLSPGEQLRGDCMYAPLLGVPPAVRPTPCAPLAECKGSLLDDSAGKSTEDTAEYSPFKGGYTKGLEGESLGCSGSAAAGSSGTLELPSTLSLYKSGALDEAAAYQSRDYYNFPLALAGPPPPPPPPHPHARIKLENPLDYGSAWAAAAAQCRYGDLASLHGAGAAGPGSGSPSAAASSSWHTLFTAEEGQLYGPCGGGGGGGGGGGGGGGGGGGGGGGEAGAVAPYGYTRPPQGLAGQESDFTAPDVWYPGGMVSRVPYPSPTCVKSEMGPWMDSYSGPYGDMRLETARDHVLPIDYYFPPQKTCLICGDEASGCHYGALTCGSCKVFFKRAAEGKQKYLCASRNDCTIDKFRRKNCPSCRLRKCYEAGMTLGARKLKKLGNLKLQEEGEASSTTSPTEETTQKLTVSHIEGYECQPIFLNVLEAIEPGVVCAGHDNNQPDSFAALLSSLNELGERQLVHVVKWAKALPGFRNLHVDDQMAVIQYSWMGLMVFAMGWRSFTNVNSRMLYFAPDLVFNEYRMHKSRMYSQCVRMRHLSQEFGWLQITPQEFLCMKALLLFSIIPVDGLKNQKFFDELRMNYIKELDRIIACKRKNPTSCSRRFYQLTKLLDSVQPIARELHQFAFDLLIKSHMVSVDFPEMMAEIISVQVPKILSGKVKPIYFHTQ
Type: cell-based
Parameters: Measurement of the Effects of Drugs on the Expression of AR in Cells by ELISA Method; endogenous in cells; host or cells: LNCaP
Procedure, shortened: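 LNCaP cells at about 15,000/well were treated for 24 h with compound at 0.0001–2 μmol/L final. AR in cell lysates was measured by ELISA (OD450). Inhibition was relative to DMSO control after blank subtraction, and DC50 was calculated from it.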

SMILES	DC50
Cc1ncsc1-c1c[nH]c([C@@H]2C[C@@H](O)CN2C(=O)[C@@H](NC(=O)COCCCCOc2ccc(-c3ncc(N4C(=S)N(c5ccc(C#N)c(C(F)(F)F)c5F)C(=O)C4(C)C)cc3F)cc2F)C(C)(C)C)n1 [Compound A160]	151 nM
Cc1ncsc1-c1ccc(CNC(=O)[C@@H]2C[C@@H](O)CN2C(=O)[C@@H](NC(=O)COCC(F)(F)CCOc2ccc(-c3ncc(N4C(=S)N(c5ccc(C#N)c(C(F)(F)F)c5F)C(=O)C4(C)C)cc3F)cc2F)C(C)(C)C)cc1 [Compound A162]	186 nM
Cc1ncsc1-c1ccc(CNC(=O)[C@@H]2C[C@@H](O)CN2C(=O)[C@@H](NC(=O)COCCC(F)(F)COc2ccc(-c3ncc(N4C(=S)N(c5ccc(C#N)c(C(F)(F)F)c5F)C(=O)C4(C)C)cc3F)cc2F)C(C)(C)C)cc1 [Compound A163]	171 nM
Cc1ncsc1-c1c[nH]c([C@@H]2C[C@@H](O)CN2C(=O)[C@@H](NC(=O)COCCCCOc2ccc(-c3ncc(N4C(=S)N(c5ccc(C#N)c(C(F)(F)F)c5F)C(=O)C4(C)C)cc3F)c(C(F)(F)F)c2)C(C)(C)C)n1 [Compound A165]	43.8 nM
Cc1ncsc1-c1ccc(CNC(=O)[C@@H]2C[C@@H](O)CN2C(=O)[C@@H](NC(=O)COCC(F)CCOc2ccc(-c3ncc(N4C(=S)N(c5ccc(C#N)c(C(F)(F)F)c5F)C(=O)C4(C)C)cc3F)c(C(F)(F)F)c2)C(C)(C)C)cc1 (stereo partly shown) [Compound A166]	144 nM
Cc1ncsc1-c1ccc(CNC(=O)[C@@H]2C[C@@H](O)CN2C(=O)[C@@H](NC(=O)COCCC(F)(F)COc2ccc(-c3ncc(N4C(=S)N(c5ccc(C#N)c(C(F)(F)F)c5F)C(=O)C4(C)C)cc3F)c(C(F)(F)F)c2)C(C)(C)C)cc1 [Compound A167]	204 nM
Cc1ncsc1-c1ccc(CNC(=O)[C@@H]2C[C@@H](O)CN2C(=O)[C@@H](NC(=O)COCC(F)(F)CCOc2ccc(-c3ncc(N4C(=S)N(c5ccc(C#N)c(C(F)(F)F)c5F)C(=O)C4(C)C)cc3F)c(C(F)(F)F)c2)C(C)(C)C)cc1 [Compound A168]	159 nM
Cc1ncsc1-c1ccc(CNC(=O)[C@@H]2C[C@@H](O)CN2C(=O)[C@@H](NC(=O)COCC(F)C(F)COc2ccc(-c3ccc(N4C(=S)N(c5ccc(C#N)c(C(F)(F)F)c5F)C(=O)C4(C)C)cn3)cc2)C(C)(C)C)cc1 (stereo partly shown) [Compound A169]	92.6 nM
Cc1ncsc1-c1ccc(CNC(=O)[C@@H]2C[C@@H](O)CN2C(=O)[C@@H](NC(=O)COCCCCNC(=O)/C=C/c2ccc(N3C(=S)N(c4ccc(C#N)c(C(F)(F)F)c4F)C(=O)C3(C)C)cn2)C(C)(C)C)cc1 [Compound A170]	946 nM
Cc1ncsc1-c1ccc(CNC(=O)[C@@H]2C[C@@H](O)CN2C(=O)[C@@H](NC(=O)COCC(F)CCOc2ccc(-c3ccc(N4C(=S)N(c5ccc(C#N)c(C(F)(F)F)c5F)C(=O)C4(C)C)cn3)cc2)C(C)(C)C)cc1 (stereo partly shown) [Compound A171]	80.2 nM
Cc1cc(C(C(=O)N2C[C@H](O)C[C@H]2C(=O)N[C@@H](CC(=O)NCCCOc2ccc(-c3ncc(N4C(=S)N(c5ccc(C#N)c(C(F)(F)F)c5F)C(=O)C4(C)C)cc3F)cc2F)c2ccc(-c3scnc3C)cc2)C(C)C)on1 (stereo partly shown) [Compound A172]	170 nM
Cc1cc(C(C(=O)N2C[C@H](O)C[C@H]2C(=O)N[C@@H](CC(=O)N2CCC(C#Cc3ccc(N4C(=S)N(c5ccc(C#N)c(C(F)(F)F)c5F)C(=O)C4(C)C)cn3)CC2)c2ccc(-c3scnc3C)cc2)C(C)C)on1 (stereo partly shown) [Compound A173]	78.1 nM
Cc1ncsc1-c1ccc(CNC(=O)[C@@H]2C[C@@H](O)CN2C(=O)[C@@H](NC(=O)COCC(F)(F)CCOc2ccc(-c3ccc(N4C(=S)N(c5ccc(C#N)c(C(F)(F)F)c5F)C(=O)C4(C)C)cn3)cc2)C(C)(C)C)cc1 [Compound A175]	123 nM
Cc1cc(C(C(=O)N2C[C@H](O)C[C@H]2C(=O)N[C@@H](CC(=O)N2CCC(C#Cc3ccc(N4C(=S)N(c5ccc(C#N)c(C(F)(F)F)c5F)C(=O)C4(C)C)cc3)CC2)c2ccc(-c3scnc3C)cc2)C(C)C)on1 (stereo partly shown) [Compound A176]	62.1 nM
Cc1cc(C(C(=O)N2C[C@H](O)C[C@H]2C(=O)N[C@@H](CC(=O)NCCCCCCOc2ccc(-c3ncc(N4C(=S)N(c5ccc(C#N)c(C(F)(F)F)c5F)C(=O)C4(C)C)cc3F)cc2F)c2ccc(-c3scnc3C)cc2)C(C)C)on1 (stereo partly shown) [Compound A177]	253 nM
Cc1cc(C(C(=O)N2C[C@H](O)C[C@H]2C(=O)N[C@@H](CC(=O)N2CCC(Oc3ccc(-c4ncc(N5C(=S)N(c6ccc(C#N)c(C(F)(F)F)c6F)C(=O)C5(C)C)cc4F)cc3F)CC2)c2ccc(-c3scnc3C)cc2)C(C)C)on1 (stereo partly shown) [Compound A178]	90.5 nM

SMILES	DC50
CC1(C)C(=O)N(c2ccc(C#N)c(C(F)(F)F)c2F)C(=S)N1c1cnc(-c2ccc(OC3CCN(C(=O)COc4ccc5c(c4)C(=O)N(C4CCC(=O)NC4=O)C5=O)CC3)cc2C(F)(F)F)c(F)c1 (stereo not shown) [Compound A180]	840 nM
Cc1cc(C(C(=O)N2C[C@H](O)C[C@H]2C(=O)N[C@@H](CC(=O)N2CCC(Oc3ccc(-c4ncc(N5C(=S)N(c6ccc(C#N)c(C(F)(F)F)c6F)C(=O)C5(C)C)cc4F)c(C(F)(F)F)c3)CC2)c2ccc(-c3scnc3C)cc2)C(C)C)on1 (stereo partly shown) [Compound A183]	151 nM
Cc1cc(C(C(=O)N2C[C@H](O)C[C@H]2C(=O)N[C@@H](CC(=O)NCCN2CCC(C#Cc3ccc(N4C(=S)N(c5ccc(C#N)c(C(F)(F)F)c5F)C(=O)C4(C)C)cc3)CC2)c2ccc(-c3scnc3C)cc2)C(C)C)on1 (stereo partly shown) [Compound A184]	370 nM
COc1c(C#N)ccc(N2C(=O)C(C)(C)N(c3ccc(-c4ccc(OCCCCOCC(=O)N[C@H](C(=O)N5C[C@H](O)C[C@H]5C(=O)NCc5ccc(-c6scnc6C)cc5)C(C)(C)C)cc4)nc3)C2=S)c1F [Compound A185]	49.8 nM
Cc1cc(C(C(=O)N2C[C@H](O)C[C@H]2C(=O)N[C@@H](CC(=O)NCCN2CCC(Oc3ccc(-c4ncc(N5C(=S)N(c6ccc(C#N)c(C(F)(F)F)c6F)C(=O)C5(C)C)cc4F)cc3F)CC2)c2ccc(-c3scnc3C)cc2)C(C)C)on1 (stereo partly shown) [Compound A186]	87 nM
CC1(C)C(=O)N(c2ccc(C#N)c(C(F)(F)F)c2F)C(=S)N1c1cnc(-c2cc(F)c(OC3CCN(C(=O)COc4ccc5c(c4)C(=O)N(C4CCC(=O)NC4=O)C5=O)CC3)c(F)c2)c(F)c1 (stereo not shown) [Compound A189]	329 nM
CC1(C)C(=O)N(c2ccc(C#N)c(C(F)(F)F)c2F)C(=S)N1c1cnc(-c2cc(F)c(OC3CCN(C(=O)COc4cccc5c4C(=O)N(C4CCC(=O)NC4=O)C5=O)CC3)c(F)c2)c(F)c1 (stereo not shown) [Compound A191]	162 nM
COc1c(C#N)ccc(N2C(=O)C(C)(C)N(c3cnc(-c4ccc(OC5CCN(C(=O)COc6ccc7c(c6)C(=O)N(C6CCC(=O)NC6=O)C7=O)CC5)cc4F)c(F)c3)C2=S)c1F (stereo not shown) [Compound A194]	246 nM
COc1c(C#N)ccc(N2C(=O)C(C)(C)N(c3cnc(-c4ccc(OC5CCN(C(=O)COc6cccc7c6C(=O)N(C6CCC(=O)NC6=O)C7=O)CC5)cc4F)c(F)c3)C2=S)c1F (stereo not shown) [Compound A195]	404 nM
COc1c(C#N)ccc(N2C(=O)C(C)(C)N(c3cnc(-c4ccc(OCCCCOCC(=O)N[C@H](C(=O)N5C[C@H](O)C[C@H]5C(=O)NCc5ccc(-c6scnc6C)cc5)C(C)(C)C)cc4C(F)(F)F)c(F)c3)C2=S)c1F [Compound A196]	39 nM
COc1c(C#N)ccc(N2C(=O)C(C)(C)N(c3cnc(-c4ccc(OCCNC(=O)COc5ccc6c(c5)C(=O)N(C5CCC(=O)NC5=O)C6=O)c(F)c4)c(F)c3)C2=S)c1F (stereo not shown) [Compound A197]	435 nM
Cc1ncsc1-c1c[nH]c([C@@H]2C[C@@H](O)CN2C(=O)[C@@H](NC(=O)COCCCCOc2ccc(-c3ccc(N4C(=S)N(c5ccc(C#N)c(C(F)(F)F)c5F)C(=O)C4(C)C)cn3)cc2)C(C)(C)C)n1 [Compound A198]	42.8 nM
CC(C)(C)[C@H](NC(=O)COCCCCOc1ccc(-c2ncc(N3C(=S)N(c4ccc(C#N)c(C(F)(F)F)c4F)C(=O)C3(C)C)cc2F)c(C(F)(F)F)c1)C(=O)N1C[C@H](O)C[C@H]1c1nc(-c2ccccc2)c[nH]1 [Compound A202]	661 nM
CC(C)(C)[C@H](NC(=O)COCCCCOc1ccc(-c2ccc(N3C(=S)N(c4ccc(C#N)c(C(F)(F)F)c4F)C(=O)C3(C)C)cn2)cc1)C(=O)N1C[C@H](O)C[C@H]1c1nc(-c2cncs2)c[nH]1 [Compound A203]	71.9 nM
CC(C)(C)[C@H](NC(=O)COCCCCOc1ccc(-c2ncc(N3C(=S)N(c4ccc(C#N)c(C(F)(F)F)c4F)C(=O)C3(C)C)cc2F)c(C(F)(F)F)c1)C(=O)N1C[C@H](O)C[C@H]1c1nc(-c2cncs2)c[nH]1 [Compound A204]	36.4 nM
